Test results reported in patent publication US20240158446A1, “CYCLIC COMPOUND HAVING SELECTIVE INHIBITORY ACTION ON KRAS OVER HRAS AND NRAS” (CHUGAI SEIYAKU KABUSHIKI KAISHA, priority 2021, published 2024).
Where two headings read alike, the source gives them in different places. *1 amine or outer side, *2 acyl side, *3 side chain or, on linkers, in order; H or OH if unused. Where a SMILES comes first, the peptide text is derived from it. Bridges are numbered along the chain shown (N, C = ends). [ ]: non-standard residue; d: D form. The star is where a group is joined. hPhe(3-Cl-4-CF3) = N[C@@H](CCc1ccc(C(F)(F)F)c(Cl)c1)C(=O)O; X45 = O=C([C@H](Cc1ccc(C(F)(F)F)cc1)N(CCCF)[*:1])[*:2]; NPrPhe(4-CF3) = CCCN[C@@H](Cc1ccc(C(F)(F)F)cc1)C(=O)O; X42 = Cc1ccc(C[C@@H](C(=O)[*:2])N(CC2CCC2)[*:1])cc1; NMeGly(cPent) = CN[C@H](C(=O)O)C1CCCC1; NMeD = CN[C@@H](CC(=O)O)C(=O)O; NMeL = CN[C@@H](CC(C)C)C(=O)O; Morpholide = C1CN(*)CCO1; NMeA = CN[C@@H](C)C(=O)O; Ac5c = NC1(C(=O)O)CCCC1; Aze = O=C(O)[C@@H]1CCN1; Ac4c = NC1(C(=O)O)CCC1; Sar = CNCC(=O)O

Columns and labels:
[1] = molecular target: GDP-bound HRAS wild-type protein (Homo sapiens, UniProt P01112); test: Binding to HRAS by surface plasmon resonance (SPR), Single Cycle Kinetics; conditions: for HRAS/KRAS (ratio of KD value for HRAS to KD value for KRAS) / HRAS/KRAS (ratio of KD value with respect to HRAS to KD value with respect to KRAS): SPR, GDP-bound HRAS wild-type protein vs GDP-bound KRAS wild-type protein; for HRAS/KRAS (ratio of KD value with respect to GDP-bound HRAS wild-type protein to KD value with respect to KRAS): SPR KD ratio HRAS/KRAS, class symbols
[2] = molecular target: GDP-bound KRAS wild-type protein (Homo sapiens, UniProt P01116); test: Binding to KRAS by surface plasmon resonance (SPR), Single Cycle Kinetics; conditions: GDP-bound KRAS wild-type protein, read-out: KRAS KD
[3] = molecular target: GDP-bound NRAS wild-type protein (Homo sapiens, UniProt P01111); test: Binding to NRAS by surface plasmon resonance (SPR), Single Cycle Kinetics; conditions: for NRAS/KRAS (ratio of KD value for NRAS to KD value for KRAS) / NRAS/KRAS (ratio of KD value with respect to NRAS to KD value with respect to KRAS): SPR, GDP-bound NRAS wild-type protein vs GDP-bound KRAS wild-type protein; for NRAS/KRAS (ratio of KD value with respect to GDP-bound NRAS wild-type protein to KD value with respect to KRAS): SPR KD ratio NRAS/KRAS, class symbols
[4] = SPR Single Cycle Kinetics, 1:1 binding model

Chain of GDP-bound HRAS wild-type protein (P01112 whole entry): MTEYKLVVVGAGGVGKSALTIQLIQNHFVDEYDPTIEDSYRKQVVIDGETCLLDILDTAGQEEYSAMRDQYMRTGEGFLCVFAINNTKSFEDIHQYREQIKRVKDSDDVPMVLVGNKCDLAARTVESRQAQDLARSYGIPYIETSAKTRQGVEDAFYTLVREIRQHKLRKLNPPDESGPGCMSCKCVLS
Chain of GDP-bound NRAS wild-type protein (P01111 whole entry): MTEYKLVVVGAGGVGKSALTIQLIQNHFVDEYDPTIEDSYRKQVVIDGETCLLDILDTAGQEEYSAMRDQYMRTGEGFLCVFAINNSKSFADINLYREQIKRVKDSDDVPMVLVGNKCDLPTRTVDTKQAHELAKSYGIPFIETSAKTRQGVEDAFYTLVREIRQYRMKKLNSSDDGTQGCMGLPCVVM
Chain of GDP-bound KRAS wild-type protein (P01116 whole entry): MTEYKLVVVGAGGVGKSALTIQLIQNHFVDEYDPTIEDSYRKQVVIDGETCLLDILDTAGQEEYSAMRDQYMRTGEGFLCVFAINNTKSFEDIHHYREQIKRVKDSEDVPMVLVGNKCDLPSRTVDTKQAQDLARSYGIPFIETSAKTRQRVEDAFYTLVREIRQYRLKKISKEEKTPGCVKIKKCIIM

Compound	HRAS/KRAS (ratio of KD value for HRAS to KD value for KRAS) [1]	Kd [2, 4] [pM]	NRAS/KRAS (ratio of KD value for NRAS to KD value for KRAS) [3]	HRAS/KRAS (ratio of KD value with respect to GDP-bound HRAS wild-type protein to KD value with respect to KRAS) [1]	NRAS/KRAS (ratio of KD value with respect to GDP-bound NRAS wild-type protein to KD value with respect to KRAS) [3]	HRAS/KRAS (ratio of KD value with respect to HRAS to KD value with respect to KRAS) [1]	NRAS/KRAS (ratio of KD value with respect to NRAS to KD value with respect to KRAS) [3]	Kd ([2]; SPR, Single Cycle Kinetics) [pM]
CCCN1C(=O)[C@@H]2CCN2C(=O)CN(C)C(=O)[C@H]([C@@H](C)CC)NC(=O)[C@H](CC(C)C)N(C)C(=O)C[C@@H](C(=O)N2CCOCC2)NC(=O)[C@H](C2CCCC2)N(C)C(=O)C2(CCC2)NC(=O)[C@@H]2CCCN2C(=O)[C@H](CCc2ccc(C(F)(F)F)c(Cl)c2)NC(=O)CN(C)C(=O)[C@@H]1Cc1ccc(C(F)(F)F)cc1 [PP0350] ([NMeL]I[Sar][Aze][NPrPhe(4-CF3)][Sar][hPhe(3-Cl-4-CF3)]P[Ac4c][NMeGly(cPent)]D-Morpholide; lactam N-11)	B (a compound having 3 or more and less than 10 is denoted as B)	1100	C (A compound having a KD ratio of 0.1 or more and less than 3 is denoted as C)	–	–	–	–	–
CCC[C@H]1C(=O)N[C@@H]([C@@H](C)CC)C(=O)N(C)CC(=O)N(C)[C@H]2C/C=C\CCN(C2=O)[C@@H](Cc2ccc(C(F)(F)F)cc2)C(=O)N(C)CC(=O)N[C@@H](CCc2ccc3ccn(C)c3c2)C(=O)N2C[C@H](OCC)C[C@H]2C(=O)NC2(CC(C)(C)C2)C(=O)N(C)[C@@H](C2CCCC2)C(=O)N(C)[C@H](C(=O)N(C)C)CC(=O)N1C [PP2901]	–	3100	–	A (a compound having 10 or more and less than 20 is denoted as A)	A (a compound having 10 or more and less than 20 is denoted as A)	–	–	–
CCCC[C@H]1C(=O)N[C@@H]([C@@H](C)CC)C(=O)N(C)CC(=O)N(C)[C@H]2C/C=C\CCN(C2=O)[C@@H](Cc2ccc(C)cc2)C(=O)N(C)CC(=O)N[C@@H](CCc2cc(F)c(C(F)(F)F)c(F)c2)C(=O)N2C[C@H](OCC)C[C@H]2C(=O)NC2(CC(C)(C)C2)C(=O)N(C)[C@@H](C2CCCC2)C(=O)N(C)[C@H](C(=O)N(C)CC)CC(=O)N1C [PP2808]	–	430	–	B (a compound having 3 or more and less than 10 is denoted as B)	B (a compound having 3 or more and less than 10 is denoted as B)	–	–	–
CC[C@H](C)[C@@H]1NC(=O)[C@H](CC(C)C)N(C)C(=O)C[C@@H](C(=O)N2CCOCC2)N(C)C(=O)[C@H](C2CCCC2)N(C)C(=O)C2(CCCC2)NC(=O)[C@@H]2CCCN2C(=O)[C@H](CCc2ccc(C(F)(F)F)c(Cl)c2)NC(=O)CN(C)C(=O)[C@H](Cc2ccc(C(F)(F)F)cc2)N(CCCF)C(=O)[C@@H]2CCN2C(=O)[C@H](C)N(C)C1=O [PP0525] ([NMeL]I[NMeA][Aze][X45][Sar][hPhe(3-Cl-4-CF3)]P[Ac5c][NMeGly(cPent)][NMeD]-Morpholide; lactam N-11)	–	140	–	–	–	B (a compound having 3 or more and less than 10 is denoted as B)	C (A compound having a KD ratio of 0.1 or more and less than 3 is denoted as C)	–
CC[C@H](C)[C@@H]1NC(=O)[C@H](CC(F)(F)F)N(C)C(=O)C[C@@H](C(=O)N2CCOCC2)N(C)C(=O)[C@H](C2CCCC2)N(C)C(=O)C2(CCCC2)NC(=O)[C@@H]2CCCN2C(=O)[C@H](CCc2cc(F)c(C(F)(F)F)c(F)c2)NC(=O)CN(C)C(=O)[C@H](Cc2ccc(C(F)(F)F)cc2)N2CCCCC[C@@H](C2=O)N(C)C(=O)CN(C)C1=O [PP0520]	–	990	–	–	–	B (a compound having 3 or more and less than 10 is denoted as B)	B (a compound having 3 or more and less than 10 is denoted as B)	–
CCCN1C(=O)CN(C)C(=O)CN(C)C(=O)[C@H]([C@@H](C)CC)NC(=O)[C@H](CC(C)C)N(C)C(=O)C[C@@H](C(=O)N(C)C)NC(=O)[C@H](C2CCCC2)N(C)C(=O)C2(CCC2)NC(=O)[C@@H]2CCCN2C(=O)[C@H](CCc2ccc(C(F)(F)F)c(Cl)c2)NC(=O)CN(C)C(=O)[C@@H]1Cc1ccc(C(F)(F)F)cc1 [PP0356] ([NMeL]I[Sar][Sar][NPrPhe(4-CF3)][Sar][hPhe(3-Cl-4-CF3)]P[Ac4c][NMeGly(cPent)]D-NMe2; lactam N-11)	B (a compound having 3 or more and less than 10 is denoted as B)	490	B (a compound having 3 or more and less than 10 is denoted as B)	–	–	–	–	–
CCO[C@@H]1C[C@H]2C(=O)NC3(CCC3)C(=O)N(C)[C@@H](C3CCCC3)C(=O)N(CC)[C@H](C(=O)N(C)C)CC(=O)N(C)[C@@H](CC)C(=O)N[C@@H]([C@@H](C)CC)C(=O)N(C)CC(=O)N(C)[C@H]3CCCCN(C3=O)[C@@H](Cc3ccc(C(F)(F)F)cc3)C(=O)N(C)CC(=O)N[C@@H](CCc3cc(F)c(C(F)(F)F)c(F)c3)C(=O)N2C1 [PP0643]	–	74	–	–	–	B (a compound having 3 or more and less than 10 is denoted as B)	C (A compound having a KD ratio of 0.1 or more and less than 3 is denoted as C)	–
CCO[C@@H]1C[C@H]2C(=O)NC3(CCC3)C(=O)N(C)[C@@H](C3CCCC3)C(=O)N(C)[C@H](C(=O)N3CCOCC3)CC(=O)N(C)[C@@H](CC(C)C)C(=O)N[C@@H]([C@@H](C)CC)C(=O)N(C)CC(=O)N(C)[C@H]3CCCCCN(C3=O)[C@@H](Cc3ccc(F)cc3OC)C(=O)N(C)CC(=O)N[C@@H](CCc3cc(F)c(C(F)(F)F)c(F)c3)C(=O)N2C1 [PP0924]	B (a compound having 3 or more and less than 10 is denoted as B)	–	B (a compound having 3 or more and less than 10 is denoted as B)	–	–	–	–	820
CCO[C@@H]1C[C@H]2C(=O)NC3(CCC3)C(=O)N(C)[C@@H](C3CCCC3)C(=O)N(CC)[C@H](C(=O)N(C)C)CC(=O)N(C)[C@@H](CC)C(=O)N[C@@H]([C@@H](C)CC)C(=O)N(C)CC(=O)N(C)[C@H]3C/C=C\CCN(C3=O)[C@@H](Cc3ccc(C(F)(F)F)cc3)C(=O)N(C)CC(=O)N[C@@H](CCc3cc(F)c(C(F)(F)F)c(F)c3)C(=O)N2C1 [PP0980]	B (a compound having 3 or more and less than 10 is denoted as B)	–	A (a compound having 10 or more and less than 20 is denoted as A)	–	–	–	–	880
CC[C@H](C)[C@@H]1NC(=O)[C@H](CC(C)C)N(C)C(=O)C[C@@H](C(=O)N2CCOCC2)N(C)C(=O)[C@H](C2CCCC2)N(C)C(=O)C2(CCCC2)NC(=O)[C@@H]2CCCN2C(=O)[C@H](CCc2ccc(C(F)(F)F)c(Cl)c2)NC(=O)CN(C)C(=O)[C@H](Cc2ccc(C(F)(F)F)cc2)N2CC=CC[C@@H](C2=O)N(C)C(=O)CN(C)C1=O [PP0462]	–	320	–	–	–	C (A compound having a KD ratio of 0.1 or more and less than 3 is denoted as C)	C (A compound having a KD ratio of 0.1 or more and less than 3 is denoted as C)	–
CCO[C@@H]1C[C@H]2C(=O)NC3(CCC3)C(=O)N(C)[C@@H](C3CCCC3)C(=O)N(C)[C@H](C(=O)N(C)C)CC(=O)N(C)[C@@H](CC)C(=O)N[C@@H]([C@@H](C)CC)C(=O)N(C)CC(=O)N(C)[C@H]3CCCCN(C3=O)[C@@H](Cc3ccc(C(F)(F)F)cc3)C(=O)N(C)CC(=O)N[C@@H](CCc3cc(Cl)c(C(F)(F)F)c(Cl)c3)C(=O)N2C1 [PP0985]	C (A compound having a KD ratio of 0.1 or more and less than 3 is denoted as C)	–	C (A compound having a KD ratio of 0.1 or more and less than 3 is denoted as C)	–	–	–	–	22
CC[C@H](C)[C@@H]1NC(=O)[C@H](CC(C)C)N(C)C(=O)C[C@@H](C(=O)N2CCOCC2)N(C)C(=O)[C@H](C2CCCC2)N(C)C(=O)C2(CCCC2)NC(=O)[C@@H]2CCCN2C(=O)[C@H](CCc2ccc(C(F)(F)F)c(Cl)c2)NC(=O)CN(C)C(=O)[C@H](Cc2ccc(C)cc2)N(CC2CCC2)C(=O)CN(C)C(=O)CN(C)C1=O [PP0095] ([NMeL]I[Sar][Sar][X42][Sar][hPhe(3-Cl-4-CF3)]P[Ac5c][NMeGly(cPent)][NMeD]-Morpholide; lactam N-11)	C (A compound having a KD ratio of 0.1 or more and less than 3 is denoted as C)	790	C (A compound having a KD ratio of 0.1 or more and less than 3 is denoted as C)	–	–	–	–	–
